This is an account of results in PubChem BioAssay AID489041 (Sanford-Burnham Center for Chemical Genomics, 2010).

Calls of active or inactive are those of the source. No rule for the calls is given here. *1 amine or outer side, *2 acyl side, *3 side chain or, on linkers, in order; H or OH if unused. Where a SMILES comes first, the peptide text is derived from it. [ ]: non-standard residue; d: D form. X2 = CCC[C@@H](N[*:1])[C@H](C)C(=O)O[C@H](C(=O)[*:2])[C@@H](C)CC; X1 = CC(N[*:1])C(=O)C(C)(C)C(=O)[*:2]; NMeY = CN[C@@H](Cc1ccc(O)cc1)C(=O)O; NMeL = CN[C@@H](CC(C)C)C(=O)O; NMeV = CN[C@H](C(=O)O)C(C)C; NMeA = CN[C@@H](C)C(=O)O A value given as a limit tells only on which side of the number the result lay.

Usually IC50 stands for the concentration that gives 50% inhibition.

This assay deals with HEK-293T NF-kB luciferase reporter counterscreen, luminescence. In words: inhibitors of HEK-293T NF-kB luciferase – HEK-293T cells, luminescence, counter-screen for T-cell antigen receptor NF-kB inhibitors, dose response (AID 489041).
As for `CCOc1ccccc1C1CC(=O)Nc2cc3c(cc21)OCCO3` (stereo unspecified), the 50% inhibitory concentration (IC50) was 4.19 µM.
The value for `CCN(CC)c1ccc(/C=C/c2ccc3ccc(OC)cc3[n+]2CC)cc1` was 0.72 µM.
The value for `COc1cccc(N2CCN(C(=O)c3cn(Cc4ccccc4)nc3-c3cccnc3)CC2)c1` was 16.4 µM; that for `CCOc1ccc(N/C(N)=N/c2nc(CSc3nnc(C)s3)cc(=O)[nH]2)cc1` was 29.9 µM (inactive).
With `O=C(Nc1ccc(S(=O)(=O)N2CCOCC2)cc1)c1ccc(CN2CCc3ccccc3C2)cc1`, the 50% inhibitory concentration (IC50) is 1.29 µM.
Turning to `CN=c1scc(-c2cccs2)n1/N=C/c1ccccc1O`, the IC50 is less than 0.16 µM.
As to `CCOc1ccccc1NS(=O)(=O)c1ccc(-c2cnc(C3CC3)o2)cc1`, the IC50 is 1.79 µM.
Take `COc1ccc(CS(=O)(=O)/C(Cl)=C(/Cl)C(=O)Nc2ccc(OC)nc2)cc1`: the concentration for half-maximal inhibition (IC50) was 3.46 µM.
Regarding `COc1ccc(CCNc2nnc(Sc3nnnn3-c3ccccc3)s2)cc1OC`, the 50% inhibitory concentration (IC50) was 8.36 µM.
As for `COc1cc(/C=C/[N+](=O)[O-])ccc1OCc1cccc(C(=O)O)c1`, the IC50 was 10.5 µM.
For the compound `COc1ccccc1NC(=O)c1cnc(Nc2ccccc2OC)c2ccccc12`, the IC50 was > 80 µM (inactive).
With `CCOc1ccc2c(c1)OC(c1ccc(OC)cc1)(C(F)(F)F)NC2=O` (stereo unspecified), the half-maximal inhibitory concentration (IC50) is 9.2 µM.
With `COc1cc(C2C3=C(Nc4ncnn42)c2ccccc2CC3)cc(OC)c1OC` (stereo unspecified) the figure was 0.83 µM.
In the case of `CC(C)(C)c1ccc(C(=O)O/N=C(\N)c2ccccc2)cc1`, the concentration for half-maximal inhibition (IC50) is 0.31 µM.
`CC(=O)Nc1ccc(S(=O)(=O)N2c3ccccc3C(C)=CC2(C)C)cc1`: the half-inhibitory concentration (IC50) is 4.76 µM.
On to `O=C(Nc1ccncc1)c1ccc(Cl)c(S(=O)(=O)N2CCc3ccccc32)c1`, for which the IC50 was 1.49 µM.
As for `Cc1cc(C)c(CN2CCN(C(=O)Cn3cnc4c(OCc5ccccc5)ncnc43)CC2)c(C)c1`, the concentration for half-maximal inhibition (IC50) was 2.6 µM.
With `C/C=C(\C)C(=O)N[C@@H](c1ccccc1)[C@@H](O)C(=O)O[C@H]1C[C@@]2(O)[C@@H](OC(=O)c3ccccc3)C3[C@](C)(C(=O)[C@H](OC(C)=O)C(=C1C)C2(C)C)[C@H](O)C[C@H]1OC[C@@]31OC(C)=O` (stereo partly specified) the figure was > 80 µM (inactive).
Consider `COc1ccccc1C(=O)Nc1nc2ccccc2s1`, for which the concentration for half-maximal inhibition (IC50) is 0.8 µM.
In the case of `CCCC(=O)NC(c1ccc(C(C)C)cc1)c1ccc2cccnc2c1O` (stereo unspecified), the half-inhibitory concentration (IC50) is 0.66 µM.
For `CCCCCCCOc1ccc(OC(=O)c2cccnc2)cc1`, the IC50 was > 80 µM (inactive).
The value for `O=c1cc(-c2ccccc2)[nH]c2cc(Cl)ccc12` was 19.1 µM; that for `COc1cccc(OC)c1C1=NCC(=O)Nc2c1oc1ccc(Br)cc21` was 3.28 µM; that for `CCOc1cccc(-c2nnc3n2N=C(c2cc(OC)ccc2OC)CS3)c1` was 4.82 µM.
In the case of `Cc1ccnc2c1ccc1c(C)ccnc12`, the IC50 was > 80 µM (inactive).
The value for `COC(=O)c1c(NC(=O)c2ccc([N+](=O)[O-])o2)sc2c1CCN(C(C)C)C2` was 51.8 µM (inactive); that for `CC(C)Nc1ccc(C(CC(N)=O)NC(=O)Cc2ccc(Br)cc2)cc1[N+](=O)[O-]` (stereo unspecified) was 68.8 µM (inactive).
Take `Cc1sc2ncnc(NC3CCN(Cc4ccccc4)CC3)c2c1C`: the IC50 is 2.41 µM.
Regarding `CCOCCOC(=O)c1[nH]c2c(c1C)C(=O)CC(c1ccccc1)C2` (stereo unspecified), the 50% inhibitory concentration (IC50) is 3.05 µM.
Consider `Cc1noc(C)c1COc1ccc(CC(=O)NCc2ccccc2)cc1`, for which the IC50 is 20.5 µM (inactive).
Turning to `O=C(Nc1ccc(N2CCOCC2)cc1)c1ccc(Cl)c(S(=O)(=O)N2CCCCC2)c1`, the IC50 is 1.15 µM.
Consider `O=C(OCCN1C(=O)c2cccc3c(N4CCOCC4)ccc(c23)C1=O)c1ccc(Cl)cc1`, for which the concentration for half-maximal inhibition (IC50) is 7.66 µM.
With `O=C(c1ccccc1)c1cc([N+](=O)[O-])ccc1N1CCOCC1`, the concentration for half-maximal inhibition (IC50) was 17.1 µM.
For the compound `Cc1ccc2cccc(NS(=O)(=O)c3ccccc3)c2n1`, the IC50 was > 80 µM (inactive).
The value for `CCC[C@H]1NC(=O)[C@H](C)N(C)C(=O)C(C)(C)C(=O)C(C)NC(=O)[C@H](Cc2ccc(OC)cc2)N(C)C(=O)[C@H](C(C)C)N(C)C(=O)CNC(=O)[C@H](CC(C)C)N(C)C(=O)CNC(=O)[C@H]([C@@H](C)CC)OC(=O)[C@H]1C` (stereo partly specified) (cyclo(G[NMeL]G[NMeV][NMeY](Me)[X1][NMeA][X2])) was 46.7 µM (inactive).
On to `CC(Nc1ncnc2ccccc12)c1ccccc1` (stereo unspecified), for which the IC50 was 3.28 µM.
On to `Cc1ccc(C)c(NS(=O)(=O)c2ccc(-c3cnc(C4CC4)o3)cc2)c1`, for which the IC50 is 0.42 µM.
Regarding `COC(=O)CCC(=O)NC(=S)Nc1sc(C)c(C)c1C(N)=O`, the IC50 was 0.74 µM.
On to `Cc1ccc(-c2cc(C(F)F)n3ncc(C(=O)N4CCc5ccccc54)c3n2)cc1`, for which the IC50 was 9.99 µM.
The value for `COc1ccc(CNC(=O)c2c(C)oc3c2C(=O)c2ccccc2C3=O)cc1` was 2.15 µM; that for `Cc1ccc2nc(SCC(=O)Nc3cc(C(F)(F)F)ccc3N3CCOCC3)[nH]c2c1` was 25.6 µM (inactive); that for `Cc1ccc(C(=O)c2cc([N+](=O)[O-])ccc2N2CCOCC2)cc1C` was 10.3 µM.
In the case of `CCc1cc2c(=O)nc3n(c2s1)Cc1ccccc1/C3=C(/O)c1cccc([N+](=O)[O-])c1`, the IC50 was > 80 µM (inactive).
With `CCCCCCCCCCn1c2c(c(=N)c3c1CCC3)CCC2` the figure was 1.29 µM; with `CCOC(=O)c1ccccc1NS(=O)(=O)c1ccc(OCC)cc1`, 17.7 µM.
Turning to `C#CC[N+](C)(C)CCCCCCCCCCCC`, the IC50 is 25.1 µM (inactive).
For the compound `COC(=O)c1[nH]c2ccc(F)cc2c1NS(=O)(=O)c1ccc(OC)cc1`, the IC50 was 11.8 µM.
Take `Cc1cccc(N2CCN(C(=O)c3c(-c4ccccc4)noc3C)CC2)c1C`: the IC50 was 11.1 µM.
Turning to `Cc1ccc(O)c(NC(=O)c2cc(-c3ccco3)on2)c1`, the IC50 was > 80 µM (inactive).
Regarding `O=S(=O)(c1cc(F)ccc1F)N1CCN(c2ncnc3ccccc23)CC1`, the IC50 was 3.94 µM.
Take `CC[C@@]1(O)C(=O)OCc2c1cc1n(c2=O)Cc2cc3c(N)cccc3nc2-1`: the IC50 was 6.02 µM.
On to `Cc1ccc2c(c1)sc(-c1ccc(N(C)C)cc1)[n+]2C`, for which the IC50 is 0.87 µM.
The value for `C=C(C=O)C[C@@H]1C[C@H](O)C2OC3C[C@]4(C)OC5/C=C\CC6OC7C(CC=CCC6OC5CCCC4OC3CC2O1)OC1CC2OC3CC(=O)OC3C[C@@H](C)C[C@@]2(C)OC1C[C@@H]7C` (stereo partly specified) was > 80 µM (inactive).
For the compound `Cn1nc([N+](=O)[O-])nc1Sc1nnc(-c2ccccc2)o1`, the IC50 is 37.5 µM (inactive).
In the case of `O=[N+]([O-])c1nn(-c2ccc3c(c2)OCCO3)n(O)c1=Nc1ccccc1`, the IC50 was 12.4 µM.
As for `O=C(NCc1cccs1)C1CCN(c2ccc(S(=O)(=O)N3CCOCC3)cc2Cl)CC1`, the IC50 is 8.56 µM.
The value for `COc1ccc(CNS(=O)(=O)c2cc(-c3cc(C)no3)ccc2C(C)C)cc1` was 10.9 µM.
With `CCOc1ccc(N(CC(=O)Nc2ccccc2C)S(=O)(=O)c2c(C)noc2C)cc1` the figure was 17 µM; with `CN[C@H]1CCc2cc(OC)c(OC)c(OC)c2-c2ccc(OC)c(=O)cc21`, less than 0.16 µM; with `COC(=O)c1ccccc1NC(=O)Cn1c(-c2nonc2N)nc2ccccc21`, 3.77 µM.
On to `Cc1cc(-c2ccc(S(=O)(=O)N(C)c3ccc(C)c(C)c3)s2)on1`, for which the IC50 is 7.86 µM.
On to `CCn1c(C)cc(C(=O)CN2C(=O)c3ccccc3S2(=O)=O)c1C`, for which the IC50 was 5.36 µM.
With `COc1cccc(/C=N/Nc2ccc(C(=O)O)cc2)c1O`, the half-maximal inhibitory concentration (IC50) is 0.41 µM.
With `COc1ccccc1NC(=O)C1=C(C)Nc2nc3ccccc3n2C1c1cccs1` (stereo unspecified), the IC50 was 13.6 µM.
With `C[C@@H]1O[C@@H](O[C@H]2C[C@@H](O)[C@]3(CO)[C@H]4[C@H](O)C[C@]5(C)[C@@H](C6COC(=O)C6)CC[C@]5(O)[C@@H]4CC[C@]3(O)C2)[C@H](O)[C@H](O)[C@H]1O` (stereo partly specified), the 50% inhibitory concentration (IC50) is 0.87 µM.
With `O=C1/C(=C/c2ccc(N3CCOCC3)o2)SC(=Nc2ccccc2)N1CCc1c[nH]c2ccccc12` the figure was 13.8 µM.
In the case of `COc1cc(C(=O)Nc2ccc3c(c2)ncn3C)cc(OC)c1OC`, the IC50 is 14.7 µM.
For `O=C(O)c1ccc(-c2ccc(-c3ccccc3)cc2)s1`, the IC50 was 9.3 µM.
For `O=C1C=CC(O)(c2cc(=O)c3c(O)cc(O)cc3o2)C=C1`, the IC50 was 20.5 µM (inactive).
`CCc1ccc(/C=N/NC(=O)c2cc(-c3ccncc3)nc3ccccc23)s1`: the half-inhibitory concentration (IC50) is 7.66 µM.
For the compound `CCn1nc(C)c(CNC(=O)c2ccc(OC3CCN(Cc4ccccn4)CC3)cc2)c1C`, the IC50 was 1.72 µM.
The value for `COc1ccccc1CNS(=O)(=O)c1ccc(-c2cnc(C3CC3)o2)cc1` was 2.6 µM; that for `COc1cccc(/C=N/Nc2ncnc3scc(-c4ccccc4)c23)c1O` was 4.6 µM; that for `C[C@@H]1O[C@@H](O[C@H]2C[C@@H](O)[C@]3(CO)[C@@H]4C(CC[C@]3(O)C2)[C@@]2(O)CC[C@H](C3COC(=O)C3)[C@@]2(C)C[C@H]4O)[C@H](O)[C@H](O)[C@H]1O` (stereo partly specified) was 0.69 µM.
For the compound `Cc1nn(C)c(C)c1CN(Cc1nc(CCC(C)C)no1)C(C)C`, the half-maximal inhibitory concentration (IC50) was 11 µM.
Turning to `Cc1ccc(-c2cc3c(N=O)c4ccccc4c-3n[nH]2)cc1`, the IC50 is 0.88 µM.
Consider `Cc1oc(-c2ccc(Cl)cc2)nc1CS(=O)CC(=O)NCCCN1CCN(Cc2ccccc2)CC1` (stereo unspecified), for which the IC50 is 4.13 µM.
Turning to `CCCCCCCCCCCCCCCC[n+]1ccc(/C=N/O)cc1`, the IC50 is 20.7 µM (inactive).
Regarding `Cc1ccc(/C=C/c2ccc(N(C)C)cc2)[n+](C)c1`, the half-inhibitory concentration (IC50) is 2.7 µM.
Take `COc1cccc(N/C(N)=N/c2nc(CSc3ccccn3)cc(=O)[nH]2)c1`: the half-inhibitory concentration (IC50) is 5.9 µM.
Regarding `CCCC[C@@H](C)C[C@@H](C)C(=O)N(C)[C@@H](CC(C)C)C(=O)N[C@H](C(=O)N(C)[C@H](C(=O)N1C[C@@H](O)C[C@H]1C(=O)N1C(=O)C=C[C@@H]1C)C(C)C)C(C)OC(C)=O` (stereo partly specified), the IC50 is less than 0.16 µM.
In the case of `CCCCC(=O)NC(c1ccc(N(CC)CC)cc1)c1ccc2cccnc2c1O` (stereo unspecified), the IC50 was > 80 µM (inactive).
With `O=C1CC(c2cccc(Br)c2)c2cc3c(cc2N1)CCC3` (stereo unspecified) the figure was 6.52 µM; with `Cc1nc2c(=O)n(C)c(=O)nc-2n(C)n1`, 1.88 µM; with `COC(=O)c1ccc(C)c(NS(=O)(=O)c2ccc3c(c2)OCCO3)c1`, 20.1 µM (inactive).
`CCOC(=O)c1[nH]c(C)c(C(=O)Nc2ccccc2C)c1C`: the IC50 was 67.3 µM (inactive).
